Earlier results, collected in publication PMC5989765, “The safety, tolerability, and pharmacokinetic profile of GSK2838232, a novel 2nd generation HIV maturation inhibitor, as assessed in healthy subjects” (Pharmacology Research & Perspectives, 2018).

Columns and labels:
HIV [1] = conditions: cited from earlier work
HIV [2] = test system: HIV; parameters: method as in PMID 20154583; conditions: cited from earlier work

Compound | anti‐HIV potency compared to BVM (HIV [1]; Phase IIa clinical studies) | safety (HIV [1]; Phase IIa clinical studies) | efficacy against naturally occurring polymorphisms in the HIV gag region (CA & Sp1) (HIV [1]) | potency in the presence of human serum (HIV [2])
C=C(C)[C@@H]1CC[C@]2(NCCN3CCS(=O)(=O)CC3)CC[C@]3(C)[C@H](CC[C@@H]4[C@@]5(C)CC=C(c6ccc(C(=O)O)cc6)C(C)(C)[C@@H]5CC[C@]43C)[C@@H]12 [BMS‐955176] | greater and dose‐related anti‐HIV potency | no obvious safety concerns | – | –
C=C(C)[C@@H]1CC[C@]2(C(=O)O)CC[C@]3(C)[C@H](CC[C@@H]4[C@@]5(C)CC[C@H](OC(=O)CC(C)(C)C(=O)O)C(C)(C)[C@@H]5CC[C@]43C)[C@@H]12 [BVM, Bevirimat] | – | – | lack of efficacy | significant decrease in potency
